This is an account of results in EP2270002A1 (Vereniging voor Christelijk Hoger Onderwijs, …, priority 2009, dated 2011).

The target in the experiment is histamine H4 receptor (Homo sapiens, UniProt Q9H3N8). Nature of the experiment: histamine H4 receptor Ki (Table 1; no method described). The format is binding.
Sequence of histamine H4 receptor (Q9H3N8 whole entry, species assumed): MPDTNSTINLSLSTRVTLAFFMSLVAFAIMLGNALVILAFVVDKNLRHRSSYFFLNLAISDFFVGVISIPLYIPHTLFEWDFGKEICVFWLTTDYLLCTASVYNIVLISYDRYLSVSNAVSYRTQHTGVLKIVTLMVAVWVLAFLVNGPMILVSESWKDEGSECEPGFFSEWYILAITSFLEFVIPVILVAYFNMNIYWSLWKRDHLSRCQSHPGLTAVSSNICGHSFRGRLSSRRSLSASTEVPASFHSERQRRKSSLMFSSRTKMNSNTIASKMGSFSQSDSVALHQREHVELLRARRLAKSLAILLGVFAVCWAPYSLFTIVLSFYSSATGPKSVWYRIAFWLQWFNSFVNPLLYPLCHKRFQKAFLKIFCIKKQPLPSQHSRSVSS

In general, Ki refers to the equilibrium dissociation constant of an inhibitor or competing ligand from its target. In turn, `Cc1ccc2c(N3CCN(C)CC3)nc(N)nc2c1` [Compound 1] gave a Ki of 0.024 µM.

With `CN1CCN(c2nc(N)nc3cc(Br)ccc23)CC1` [Compound 2, 7-bromo-4-(4-methylpiperazin-1-yl)quinazolin-2-amine], the affinity, expressed as Ki, was 0.017 µM.

On to `CN1CCN(c2nc(N)nc3cc(-c4ccccc4)ccc23)CC1` [Compound 3, 4-(4-methylpiperazin-1-yl)-7-phenylquinazolin-2-amine], for which the inhibition constant Ki turned out to be 0.019 µM.

Turning to `Cc1cccc(C)c1-c1ccc2c(N3CCN(C)CC3)nc(N)nc2c1` [Compound 4, 7-(2,6-dimethylphenyl)-4-(4-methylpiperazin-1-yl)quinazolin-2-amine], the affinity corresponds to a Ki of 0.09 µM.

`CN1CCN(c2nc(N)nc3cc(-c4ccc(C#N)cc4)ccc23)CC1` [Compound 5, 4-(2-amino-4-(4-methylpiperazin-1-yl)quinazolin-7-yl)benzonitrile] yielded a Ki of 0.029 µM.

`COc1ccc(-c2ccc3c(N4CCN(C)CC4)nc(N)nc3c2)cc1` [Compound 6, 7-(4-methoxyphenyl)-4-(4-methylpiperazin-1-yl)quinazolin-2-amine] showed a Ki of 0.055 µM.

Take `CN1CCN(c2nc(N)nc3cc(-c4ccoc4)ccc23)CC1` [Compound 7, 7-(furan-3-yl)-4-(4-methylpiperazin-1-yl)quinazolin-2-amine]: affinity was put at a Ki of 0.006 µM.

On to `CN1CCN(c2nc(N)nc3cc(-c4ccco4)ccc23)CC1` [Compound 8, 7-(furan-2-yl)-4-(4-methylpiperazin-1-yl)quinazolin-2-amine], for which the Ki was determined as 0.004 µM.

With `CN1CCN(c2nc(N)nc3cc(-c4ccsc4)ccc23)CC1` [Compound 9, 4-(4-methylpiperazin-1-yl)-7-(thiophen-3-yl)quinazolin-2-amine], the affinity, expressed as Ki, was 0.005 µM.

In turn, `Cc1cccc2c(N3CCN(C)CC3)nc(N)nc12` [Compound 10] showed a Ki of 0.091 µM.

The compound `CN1CCN(c2nc(N)nc3c(Br)cccc23)CC1` [Compound 11, 8-bromo-4-(4-methylpiperazin-1-yl)quinazolin-2-amine] gave a Ki of 0.111 µM.

`CN1CCN(c2nc(N)nc3c(-c4ccccc4)cccc23)CC1` [Compound 12, 4-(4-methylpiperazin-1-yl)-8-phenylquinazolin-2-amine] gave a Ki of 0.032 µM.

The compound `Cc1cccc(C)c1-c1cccc2c(N3CCN(C)CC3)nc(N)nc12` [Compound 13, 8-(2,6-dimethylphenyl)-4-(4-methylpiperazin-1-yl)quinazolin-2-amine] registered an inhibition constant (Ki) of 0.221 µM.

In the case of `CN1CCN(c2nc(N)nc3c(-c4ccc(C#N)cc4)cccc23)CC1` [Compound 14, 4-(2-amino-4-(4-methylpiperazin-1-yl)quinazolin-8-yl)benzonitrile], the affinity corresponds to a Ki of 2.33 µM.

For the compound `COc1ccc(-c2cccc3c(N4CCN(C)CC4)nc(N)nc23)cc1` [Compound 15, 8-(4-methoxyphenyl)-4-(4-methylpiperazin-1-yl)quinazolin-2-amine], affinity was put at a Ki of 0.945 µM.

In the case of `CN1CCN(c2nc(N)nc3c(-c4ccoc4)cccc23)CC1` [Compound 16, 8-(furan-3-yl)-4-(4-methylpiperazin-1-yl)quinazolin-2-amine], the Ki is 0.109 µM.
